Laboratory results reported in article PMC6930638, “The Masked Polar Group Incorporation (MPGI) Strategy in Drug Design: Effects of Nitrogen Substitutions on Combretastatin and Isocombretastatin Tubulin Inhibitors” (Molecules, 2019).

What was measured:
[1] = system: HeLa, HT-29 and MCF-7 human tumor cell lines; assay: Antiproliferative activity over the three human tumor cell lines (MTT); format: cell-based; settings: Homo sapiens, range over the cell lines, Table S1; read-out: Cytotoxicity range (range of antiproliferative IC50 values)
[2] = system: Bovine brain microtubule protein (MTP); assay: Tubulin polymerization inhibition assay (turbidimetry); format: biochemical; settings: 1.5 mg/mL MTP; IC50 calculated only if more than 50% inhibition at 20 µM; read-out: TPI IC50
[3] = system: HeLa cervix epithelioid carcinoma; assay: MTT cell antiproliferative assay, HeLa; format: cell-based; settings: Homo sapiens, 72 h

Compound | IC50 [1] [nM] | IC50 [2] [nM] | IC50 [3] [nM]
COc1cc(C(=O)c2cccc(N(C)C)c2)cc(OC)c1OC [Compound 1f, (3-(Dimethylamino)phenyl)(3,4,5-trimethoxyphenyl)methanone] | 180 to 460 | > 20000 | 180
COc1cc(C(=O)c2ccnc(N3CCCC3)c2)cc(OC)c1OC [Compound 1h, (2-(Pyrrolidin-1-yl)pyridin-4-yl)(3,4,5-trimethoxyphenyl)methanone] | 17 to 71 | 9100 | 18
C=C(c1ccc(N(C)C)nc1)c1cc(OC)c(OC)c(OC)c1 [Compound 3b, N,N-Dimethyl-5-(1-(3,4,5-trimethoxyphenyl)vinyl)pyridin-2-amine] | 81 to 277 | 35900 | 150
COc1cc(C=Cc2ccc(N(C)C)nc2)cc(OC)c1OC [Compound 8b, N,N-dimethyl-5-(3,4,5-trimethoxystyryl)pyridin-2-amine] | 57 to 80 | 5100 | 57
